Laboratory results from publication PMC11054303, “Design and Synthesis of Novel N-Benzylidene Derivatives of 3-Amino-4-imino-3,5-dihydro-4H-chromeno[2,3-d]pyrimidine under Microwave, In Silico ADME Predictions, In Vitro Antitumoral Activities and In Vivo Toxicity” (Pharmaceuticals, 2024).
“Also recorded” adds a separate entry of the source.

How the values were obtained:
PC3 = experiment: Antiproliferative assay, PC3; assay type: cell-based, human
Experimental: (§1) The potential antiproliferative activity of these novel 3-(N-phenylmethyliden)amino-4-imino-3,5-dihydro-4H-chromeno[2,3-d]pyrimidine 10(a-i) and 10-(N-phenylmethyliden)amino-11-imino-11H-naphto[1′,2′:5,6]pyrano[2,3-d]pyrimidine 10(j-l) was evaluated in a panel of eight tumoral cell lines and in diploid skin fibroblasts used as normal cell lines for control. For these antitumor assays, chosen cell lines represent diverse types of human cancer, which are, respectively, human hepatocellular carcinoma (Huh7 D12), human colon adenocarcinoma (Caco2), human breast adenocarcinoma (MDA-MB231), MDA-MB468 for human breast carcinoma which correspond to the Triple Negative Breast Cancer (TNBC), human colon carcinoma (HCT116), PC3 as cell line initiated from bone metastasis of grade IV prostatic adenocarcinoma from a person, MCF7 as breast cancer line isolated from a person and PANC1, as human pancreatic cancer cell line. The potential antiproliferative activity was preliminarily evaluated in vitro at a 25 μM single dose.
(§2) The IC50 was calculated from the full dose-response curve and used as a parameter for the antiproliferative activity of the new compounds.
(§3) Skin diploid fibroblastic cells were provided by BIOPREDIC International Company (Rennes, France). Huh-7D12 (Ref ECACC: 01042712), Caco2 (Ref ECACC: 86010202), MDA-MB-231 (Ref ECACC: 92020424), MDA-MB-468, HCT-116 (Ref ECACC: 91091005), PC3 (Ref ECACC: 90112714), and MCF7 cell lines were obtained from the ECACC collection. PANC1 cell lines, a generous gift of LBAI Inserm 1227 (Brest, France). Cells were grown according to ECACC recommendations in DMEM for Huh-D12, MDA-MB-231, MDA-MB-468 and fibroblast, in EMEM for Caco2, in McCoy’s for HCT-116 and RPMI for PC3 at 37 °C and 5% CO2. All culture media with 10% of FBS, 1% of penicillin-streptomycin and 2 mM glutamine.
(§4) Chemicals were solubilized in DMSO at a concentration of 10 mM (stock solution) and diluted in a culture medium to the desired final concentrations. […] The toxicity test of the chemicals on these cells was as follows: 2 × 10^3 cells for HCT-116 cells or 4 × 10^3 for the other cells were seeded in 96-multi-well plates in triplicate and left for 24 h for attachment, spreading and growing. Then, cells were exposed for 48 h to increasing concentrations of chemicals, ranging from 0.1 μM to 25 μM, in a final volume of 120 μL of culture medium. After 48 h of treatment, cells were washed in PBS and fixed in a cooled 90% ethanol/5% acetic acid solution for 20 min. The nuclei were stained with Hoechst 3342 (B2261 Merck Sigma-Aldrich) and counted. Image acquisition and analysis were performed using automated imaging analysis with a Cellomics Arrayscan VTI/HCS Reader (Thermo/Scientific, Waltham, MA, USA). The survival percentages were calculated as the percentage of cell number after chemical treatment over cell number after DMSO treatment. The IC50 was graphically determined.

Fibroblasts = experiment: Antiproliferative assay, diploid skin fibroblasts (normal cells); assay type: cell-based; conditions: Fibroblast; 48 h incubation; average of three assays, standard error ± 0.5 μM
Experimental: as §1, §2, §3, §4

[1] = test system: Store-Operated Ca^+2 Entry (SOCE); experiment: Store-operated calcium entry (SOCE) assay in HEK293 cells; assay type: cell-based, human; conditions: 1.25 to 50 μM added 5 min before recording, 2 μM thapsigargin, then 1.8 mM Ca2+
Experimental: (§5) Thapsigargin (TG), an inhibitor of endoplasmic reticulum Ca^+2-ATPase, is used to deplete intracellular calcium stores in a Ca^+2-free solution and therefore activate SOCE. […] In the context of a preliminary exploration of the functional effects of our molecules of interest and in the absence of a significant inhibition at a low concentration of compound 10h on the reference cell line we used (HEK293) no further exploration of the modulatory effect of this compound on cancer cell lines was initiated.
The HEK293 cell line was maintained in DMEM High Glucose with Sodium Pyruvate ([…]) and antibiotics (1% of penicillin/streptomycin) in a humidified incubator at 37 °C, supplemented with 5% of CO2.
For Ca^2+ measurement experiments, HEK293 cells were seeded overnight into 96 wells of a black clear bottom plate (Corning Ref: 3603) at […] in 100 µL culture medium. The resting medium was aspirated and cells were loaded with Fura-2 acetoxymethyl ester (Fura-2 QBT™) fluorochrome. […]
Intracellular calcium levels were evaluated by recording changes in the fluorescence of the dual-wavelength fluorescent calcium-sensitive dye Fura-2AM using the plate reader FlexStation 3™ (Molecular Devices, Sunnyvale, CA, USA). Dual excitation wavelength capability permits ratiometric measurements of Fura-2AM peak fluorescence emission at 510 nm after excitations at 340 and 380. […]

[2] = test system: Store-Operated Ca^+2 Entry (SOCE); experiment: SOCE and Ca2+ release assay in B cell line (PLP cell line); assay type: cell-based; conditions: same protocol
Experimental: as §5

COc1cccc2c1Oc1ncn(/N=C/c3ccccc3O)c(=N)c1C2 [10h, (3E) 3-N-(2-Hydroxyphenylmethylidene)amino-4-imino-9-methoxy-3,5-dihydro-4H-chromeno[2,3-d]pyrimidine]
IC50 (PC3; Homo sapiens, PC-3, 48 h incubation, average of three assays, standard error ± 0.5 μM): 240 nM
Selectivity Index (SI) PC3 (PC3; SI = IC50 fibroblasts/IC50 on PC3): > 104.2
IC50 (Fibroblasts): > 25000 nM
inhibition of SOCE [1]: dose-dependent inhibition; also recorded: partially inhibits SOCE in HEK293 cells in a dose-dependent manner; also recorded: dose-dependent effect but with a minor inhibitory effect on SOCE at low concentrations
inhibitory effects on SOCE and Ca2+ release [2]: without detecting any inhibitory effects on SOCE and Ca^2+ release; also recorded: no inhibitory effects on SOCE and Ca^+2 release
